Test results as given in patent US20120178786A9, “Use of tetramic acid derivatives for controlling pests by drenching, drip application, or dip application” (priority 2006, published 2012).

Assays:
[1] = tested on: MYZUPE; test: Example 1: irrigation experiment in pots, Abbott efficacy; type: in vivo, Myzus persicae
Method: In an irrigation experiment carried out in 0.5-1-pots, Chinese cabbage, Savoy cabbage, bell peppers and broad beans which had been potted three days earlier are watered, in two replications, with 50 ml of active substance solution containing the active substance I-4 (cis isomer) at the application rates stated. The greenhouse temperature is 20° C. Infection with MYZUPE is accomplished seven and fourteen days after the application of the active substance. The test is evaluated in each case seven days after each infection by determining the activity with the aid of Abbott's formula.

[2] = tested on: APHIGO; test: Example 2: drench of cucumber plants on rock wool, Abbott efficacy; type: in vivo, Aphis gossypii; conditions: 240 SC
Method: Cucumber plants cv. “Delikatess” which have been grown on rock wool are drenched, in six replications, one week after transplanting with in each case 100 ml active substance solution containing the active substance I-4 (cis isomer, formulation: 240 SC) at the application rate stated. The greenhouse temperature is 20° C. Infection with APHIGO is accomplished in each case seven and fourteen days after the application of the active substance. The test is evaluated in each case seven days after each infection by determining the activity with the aid of Abbott's formula.

[3] = tested on: Aphis gossypii (APHIGO); test: Example 4: drench of aubergine plants, Abbott efficacy; type: in vivo; conditions: infection 7 d after application, 240 SC
Method: (§1) Aubergine plants (25 days after sowing) in 0.5-1-pots are drenched, in three replications, with 50 ml of active substance solution containing the active substance I-4 (cis isomer, formulation: 240 SC) at the application rate stated. The greenhouse temperature is 20° C. Infection with Aphis gossypii (APHIGO), Myzus persicae (MYZUPE) and Tetranychus urticae (TETRUR) is accomplished in each case seven and fourteen days after the application of the active substance. The test is evaluated in each case seven days after each infection by determining the activity with the aid of Abbott's formula.

[4] = tested on: Myzus persicae (MYZUPE); test: as above; type: in vivo; conditions: 240 SC
Method: as §1

[5] = tested on: Tetranychus urticae (TETRUR); test: as above; type: in vivo; conditions: 240 SC
Method: as §1

[6] = tested on: Bemisia argentifolii (BEMIAR); test: Example 8: drench of tropical sage plants, Henderson-Tilton efficacy against nymphs; type: in vivo; conditions: 12 mg active substance/1 potting compost, 240 SC
Method: Tropical sage plants cv. “scarlet sage” (approximate height 29 cm) in 6-inch pots and infested with Bemisia argentifolii (BEMIAR) are drenched, in three replications, with an active substance solution containing the active substance I-4 (cis isomer, formulation: 240 SC) and, by way of comparison, with the commercial standard imidacloprid (240 SC) at the application rate stated. The greenhouse temperature is 27-33° C. The test is evaluated 9, 13, 20, 34 and 41 days after the treatment by determining the activity against nymphs on the leaves with the aid of the Henderson-Tilton method.

[7] = tested on: Madeira mealybug (Phenacoccus madeirensis); test: Example 13: drench of Coleus plants, Abbott efficacy; type: in vivo; conditions: 12 mg active substance/1 potting compost, 240 SC
Method: Coleus plants (approximate height 29 cm) in 6-inch pots which have been infected approximately 4 weeks before the beginning of the experiment with Madeira mealybug (Phenacoccus madeirensis) are drenched, in three replications, with an active substance solution containing the active substance I-4 (cis isomer, formulation: 240 SC) and, by way of comparison, with the commercial standard imidacloprid (240 SC) at the application rate stated. The greenhouse temperature is 29° C. The test is evaluated 7, 14, 21 and 28 days after the treatment by determining the efficacy with the aid of Abbott's formula.

[8] = tested on: Liriomyza sp.; test: Example 14: drench of bell pepper plots, kill rate of larvae in the leaves; type: in vivo; conditions: 40 + 10 + 10 mg/plant, 240 SC
Method: Plots approximately 2×5 m in size which contain bell pepper plants are treated, in three replications, against Liriomyza sp. The active substance example (I-4) cis isomer (240 SC) is drenched in an active substance solution at the application rate stated. The water application rate is 700 l/ha. Three treatments are carried out at intervals of 7 and 14 days. The test is evaluated in each case 7 days after the 2nd and 3rd treatment and 14 days after the 3rd treatment by scoring the kill rate of the larvae in the leaves.

[9] = tested on: foliar nematode Aphelenchoides fragariae; test: Example 16: dip treatment of lily bulbs, number of infested plants; type: in vivo; conditions: control 8
Method: The bulbs of 15 lily plants cv. “L.A. Glow” (growth stage 14/16) are dipped, in four replications, into an active substance solution containing the active substance I-4 (cis isomer, formulation: 240 SC) at the concentrations stated and subsequently planted into boxes 40×60 cm in size. The bulbs came from a field which was homogeneously infested with the foliar nematode Aphelenchoides fragariae. The number of infested plants is determined by examining leaves under the microscope for foliar nematodes 92 days after the dip treatment.

[10] = infection 7 d after application, 10 mg active substance/plant
[11] = infection 7 d after application, 20 mg active substance/plant
[12] = infection 14 d after application, 10 mg active substance/plant
[13] = infection 14 d after application, 20 mg active substance/plant

## CCOC(=O)OC1=C(c2cc(C)ccc2C)C(=O)N[C@]12CC[C@@H](OC)CC2 [Example I-4]
[1]; Bell pepper, infection 7 d after application, 10 mg active substance/plant
  Abbott efficacy (%) against MYZUPE: 100%
[1]; Bell pepper, infection 7 d after application, 20 mg active substance/plant
  Abbott efficacy (%) against MYZUPE: 100%
[1]; Bell pepper, infection 14 d after application, 10 mg active substance/plant
  Abbott efficacy (%) against MYZUPE: 100%
[1]; Bell pepper, infection 14 d after application, 20 mg active substance/plant
  Abbott efficacy (%) against MYZUPE: 100%
[1]; Broad bean, infection 7 d after application, 10 mg active substance/plant
  Abbott efficacy (%) against MYZUPE: 83%
[1]; Broad bean, infection 7 d after application, 20 mg active substance/plant
  Abbott efficacy (%) against MYZUPE: 100%
[1]; Broad bean, infection 14 d after application, 10 mg active substance/plant
  Abbott efficacy (%) against MYZUPE: 23%
[1]; Broad bean, infection 14 d after application, 20 mg active substance/plant
  Abbott efficacy (%) against MYZUPE: 99%
[1]; Chinese cabbage, infection 7 d after application, 10 mg active substance/plant
  Abbott efficacy (%) against MYZUPE: 100%
[1]; Chinese cabbage, infection 7 d after application, 20 mg active substance/plant
  Abbott efficacy (%) against MYZUPE: 100%
[1]; Chinese cabbage, infection 14 d after application, 10 mg active substance/plant
  Abbott efficacy (%) against MYZUPE: 99%
[1]; Chinese cabbage, infection 14 d after application, 20 mg active substance/plant
  Abbott efficacy (%) against MYZUPE: 99%
[1]; Savoy cabbage, infection 7 d after application, 10 mg active substance/plant
  Abbott efficacy (%) against MYZUPE: 100%
[1]; Savoy cabbage, infection 7 d after application, 20 mg active substance/plant
  Abbott efficacy (%) against MYZUPE: 100%
[1]; Savoy cabbage, infection 14 d after application, 10 mg active substance/plant
  Abbott efficacy (%) against MYZUPE: 99%
[1]; Savoy cabbage, infection 14 d after application, 20 mg active substance/plant
  Abbott efficacy (%) against MYZUPE: 99%
[2]; [10]
  Abbott efficacy (%) against APHIGO: 100%
[2]; [11]
  Abbott efficacy (%) against APHIGO: 100%
[2]; infection 7 d after application, 40 mg active substance/plant
  Abbott efficacy (%) against APHIGO: 100%
[2]; [12]
  Abbott efficacy (%) against APHIGO: 91%
[2]; [13]
  Abbott efficacy (%) against APHIGO: 96%
[2]; infection 14 d after application, 40 mg active substance/plant
  Abbott efficacy (%) against APHIGO: 99%
[3]; 10 mg active substance/plant
  Abbott efficacy (%) against APHIGO: 99%
[3]; 20 mg active substance/plant
  Abbott efficacy (%) against APHIGO: 100%
[4]; [10]
  Abbott efficacy (%) against MYZUPE: 100%
[4]; [11]
  Abbott efficacy (%) against MYZUPE: 100%
[4]; [12]
  Abbott efficacy (%) against MYZUPE: 100%
[4]; [13]
  Abbott efficacy (%) against MYZUPE: 100%
[5]; [10]
  Abbott efficacy (%) against TETRUR: 96%
[5]; [11]
  Abbott efficacy (%) against TETRUR: 100%
[5]; [12]
  Abbott efficacy (%) against TETRUR: 73%
[5]; [13]
  Abbott efficacy (%) against TETRUR: 77%
[6]; 9 d after treatment
  Henderson-Tilton efficacy (%) against Bemisia argentifolii: 99%
[6]; 13 d after treatment
  Henderson-Tilton efficacy (%) against Bemisia argentifolii: 100%
[6]; 20 d after treatment
  Henderson-Tilton efficacy (%) against Bemisia argentifolii: 98%
[6]; 34 d after treatment
  Henderson-Tilton efficacy (%) against Bemisia argentifolii: 100%
[6]; 41 d after treatment
  Henderson-Tilton efficacy (%) against Bemisia argentifolii: 100%
[7]; 7 d after treatment
  Abbott efficacy (%) against Phenacoccus madeirensis: 84%
[7]; 14 d after treatment
  Abbott efficacy (%) against Phenacoccus madeirensis: 89%
[7]; 21 d after treatment
  Abbott efficacy (%) against Phenacoccus madeirensis: 99%
[7]; 28 d after treatment
  Abbott efficacy (%) against Phenacoccus madeirensis: 98%
[8]; 7 d after 2nd treatment
  Efficacy (% Abbott) against Liriomyza sp.: 66.7 % Abbott
[8]; 7 d after 3rd treatment
  Efficacy (% Abbott) against Liriomyza sp.: 100 % Abbott
[8]; 14 d after 3rd treatment
  Efficacy (% Abbott) against Liriomyza sp.: 81.8 % Abbott
[9]; comparison: foliar treatment with 150 g/ha, 15 lily plants
  Infested plants: 6
[9]; lily bulbs dipped, a.i. 0.075 %, 15 plants, 92 days after dip treatment
  Infested plants: 0
[9]; lily bulbs dipped, a.i. 0.15 %, 15 plants, 92 days after dip treatment
  Infested plants: 0

## O=[N+]([O-])NC1=NCCN1Cc1ccc(Cl)nc1 [Imidacloprid, imidacloprid, reference compound]
[6]; 9 d after treatment
  Henderson-Tilton efficacy (%) against Bemisia argentifolii: 94%
[6]; 13 d after treatment
  Henderson-Tilton efficacy (%) against Bemisia argentifolii: 100%
[6]; 20 d after treatment
  Henderson-Tilton efficacy (%) against Bemisia argentifolii: 95%
[6]; 34 d after treatment
  Henderson-Tilton efficacy (%) against Bemisia argentifolii: 94%
[6]; 41 d after treatment
  Henderson-Tilton efficacy (%) against Bemisia argentifolii: 100%
[7]; 7 d after treatment
  Abbott efficacy (%) against Phenacoccus madeirensis: 92%
[7]; 14 d after treatment
  Abbott efficacy (%) against Phenacoccus madeirensis: 83%
[7]; 21 d after treatment
  Abbott efficacy (%) against Phenacoccus madeirensis: 30%
[7]; 28 d after treatment
  Abbott efficacy (%) against Phenacoccus madeirensis: 44%
